From US8791267B2, “Biaryl PDE4 inhibitors for treating inflammatory, cardiovascular and CNS disorders” (Decode Genetics EHF, priority 2007, dated 2014)
Counter-ions that a name gives are not always drawn.

Legend:
PDE4 = PDE4 (Homo sapiens, UniProt Q08499); assay: In-vitro assay for PDE4 enzymes, real-time enzyme-coupled spectrophotometric assay (Table 9); assay type: biochemical; settings: human PDE4D; activity class, Table 9; read-out: hPDE4D
PDE4B = PDE4B (Homo sapiens, UniProt Q07343); assay: In-vitro assay for PDE4 enzymes, real-time enzyme-coupled spectrophotometric assay, PDE4B Activity (Table 10); assay type: biochemical; settings: human PDE4B (hPDE4B), enzyme-coupled spectrophotometric assay; read-out: PDE4B Activity, hPDE4B
Chain of PDE4B (Q07343 whole entry): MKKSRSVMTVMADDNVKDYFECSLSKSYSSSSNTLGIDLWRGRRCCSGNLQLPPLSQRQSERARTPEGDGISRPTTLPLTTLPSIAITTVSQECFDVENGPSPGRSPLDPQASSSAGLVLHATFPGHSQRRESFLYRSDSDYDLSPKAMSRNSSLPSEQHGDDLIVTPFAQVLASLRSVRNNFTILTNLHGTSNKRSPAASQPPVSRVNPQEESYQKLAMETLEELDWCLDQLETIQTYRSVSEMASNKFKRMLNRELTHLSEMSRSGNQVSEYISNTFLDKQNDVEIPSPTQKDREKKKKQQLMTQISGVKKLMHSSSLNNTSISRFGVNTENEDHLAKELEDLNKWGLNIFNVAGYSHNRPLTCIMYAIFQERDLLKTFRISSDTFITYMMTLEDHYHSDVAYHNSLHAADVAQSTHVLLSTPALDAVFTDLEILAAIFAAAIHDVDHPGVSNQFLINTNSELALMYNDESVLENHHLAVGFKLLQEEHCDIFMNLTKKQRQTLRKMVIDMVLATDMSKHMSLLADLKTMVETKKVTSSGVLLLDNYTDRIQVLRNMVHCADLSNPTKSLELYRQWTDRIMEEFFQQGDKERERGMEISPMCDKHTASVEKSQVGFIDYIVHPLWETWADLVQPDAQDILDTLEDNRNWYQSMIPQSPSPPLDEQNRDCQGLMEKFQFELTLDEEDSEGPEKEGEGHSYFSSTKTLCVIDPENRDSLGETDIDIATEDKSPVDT

Chain of PDE4 (Q08499 whole entry): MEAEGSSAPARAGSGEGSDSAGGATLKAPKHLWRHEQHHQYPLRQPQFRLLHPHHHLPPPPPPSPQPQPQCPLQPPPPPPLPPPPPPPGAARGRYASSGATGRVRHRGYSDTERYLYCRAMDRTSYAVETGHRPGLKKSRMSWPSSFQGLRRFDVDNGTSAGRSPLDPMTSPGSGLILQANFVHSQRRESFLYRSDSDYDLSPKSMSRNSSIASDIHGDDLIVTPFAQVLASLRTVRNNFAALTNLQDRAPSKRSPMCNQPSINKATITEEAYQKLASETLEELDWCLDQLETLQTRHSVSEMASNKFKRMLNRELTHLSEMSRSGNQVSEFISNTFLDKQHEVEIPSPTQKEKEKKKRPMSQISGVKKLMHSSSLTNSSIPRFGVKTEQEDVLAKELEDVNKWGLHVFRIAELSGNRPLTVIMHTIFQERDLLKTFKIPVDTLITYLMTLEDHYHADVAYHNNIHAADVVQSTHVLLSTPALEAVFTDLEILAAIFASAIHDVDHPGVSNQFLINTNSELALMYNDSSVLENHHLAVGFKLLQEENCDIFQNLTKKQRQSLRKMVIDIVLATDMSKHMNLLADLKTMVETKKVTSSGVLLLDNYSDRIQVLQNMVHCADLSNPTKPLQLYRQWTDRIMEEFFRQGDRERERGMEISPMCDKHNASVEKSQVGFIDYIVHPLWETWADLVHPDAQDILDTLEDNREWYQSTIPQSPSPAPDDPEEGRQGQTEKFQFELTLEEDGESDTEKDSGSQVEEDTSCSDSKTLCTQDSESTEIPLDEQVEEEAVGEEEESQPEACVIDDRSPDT

Row | SMILES | IC50 (PDE4) [µM] | IC50 (PDE4B) [µM]
1 | NC(=O)Nc1ccc(Cc2ccc(OC(F)F)c(-c3cccc(Cl)c3)c2)cc1 [P-420] | < 5 | < 5
2 | CCOc1ccc(Cc2ccc(NC(N)=O)cc2)cc1-c1cccc(Cl)c1 [P-541, [4-(3′-Chloro-6-ethoxy-biphenyl-3-ylmethyl)-phenyl]-urea] | < 5 | < 5
3 | CC(=O)Nc1ccc(Cc2ccc(O)c(-c3cccc(Br)c3)c2F)cc1 [P-620] | < 5 | 21 to 40
4 | COc1ccc(Cc2ccccc2CO)cc1-c1cccc([N+](=O)[O-])c1 [P-134, [2-(6-Methoxy-3′-nitro-biphenyl-3-ylmethyl)-phenyl]-methanol] | < 5 | 5 to 20
5 | COc1ccc(Cc2cccnc2)c(O)c1-c1cccc([N+](=O)[O-])c1 [P-106] | < 5 | < 5
6 | Nc1ccc(Cc2ccc(OC(F)F)c(-c3cccc(Cl)c3)c2)cn1 [P-611, 5-(3′-Chloro-6-difluoromethoxy-biphenyl-3-ylmethyl)-pyridin-2-ylamine hydrochloride] | < 5 | < 5
7 | CC(C)(O)c1ccc(Cc2ccc(OC(F)F)c(-c3cccc(Cl)c3)c2)cn1 [P-610, 2-[5-(3′-Chloro-6-difluoromethoxy-biphenyl-3-ylmethyl)-pyridin-2-yl]-propan-2-ol hydrochloride] | < 5 | < 5
8 | COc1ccc(CN2CC[C@@H](O)C2)cc1-c1cccc([N+](=O)[O-])c1 [P-071, (R)-1-(6-Methoxy-3′-nitro-biphenyl-3-ylmethyl)-pyrrolidin-3-01] | < 5 | 21 to 40
9 | COc1ccc(Cc2ccc(OCCN(C)C)cc2)cc1-c1cccc([N+](=O)[O-])c1 [P-164] | < 5 | 5 to 20
10 | COc1ccc(Cc2ccc(NS(C)(=O)=O)cc2)cc1-c1cccc([N+](=O)[O-])c1 [P-123] | < 5 | < 5
11 | CCOc1ccc(Cc2ccc(OC)c(-c3cccc(Cl)c3)c2F)s1 [P-310, 2-(3′-Chloro-2-fluoro-6-methoxy-biphenyl-3-ylmethyl)-5-ethoxythiophene] | < 5 | < 5
12 | COc1ccc(Cn2ccnc2-c2cccs2)c(F)c1-c1cccc(Cl)c1 [P-559, 1-(3′-Chloro-2-fluoro-6-methoxy-biphenyl-3-ylmethyl)-2-thiophen-2-yl-1H-imidazole hydrochloride salt] | < 5 | < 5
13 | COc1ccc(Cc2cccc(NC(C)=O)c2)c(F)c1-c1cccc(Cl)c1 [P-233] | < 5 | < 5
14 | COc1ccc(Cc2cnc(N)nc2)c(F)c1-c1cccc(C#N)c1 [P-395, 3′-(2-Amino-pyrimidin-5-ylmethyl)-2′-fluoro-6′-methoxy-biphenyl-3-carbonitrile] | < 5 | < 5
15 | CCNC(=O)Nc1ccc(Cc2ccc(OC)c(-c3cccc(Cl)c3)c2F)cn1 [P-356] | < 5 | < 5
16 | COc1ccc(Cc2c(C)n[nH]c2C)cc1-c1cccc([N+](=O)[O-])c1 [P-089, 4-(6-Methoxy-3′-nitro-biphenyl-3-ylmethyl)-3,5-dimethyl-1H-pyrazole] | < 5 | < 5
17 | COc1ccc(Cc2ccc(NC(=O)CCN3CCCCC3)cc2)cc1-c1cccc([N+](=O)[O-])c1 [P-146] | < 5 | 5 to 20
18 | COc1ccc(Cn2ccccc2=O)cc1-c1cccc([N+](=O)[O-])c1 [P-104, 1-(6-Methoxy-3′-nitro-biphenyl-3-ylmethyl)-1H-pyridin-2-one] | < 5 | < 5

Row | SMILES | IC50 (PDE4) [µM] | IC50 (PDE4B) [µM]
19 | COc1ccc(CN2CCNC2=O)nc1-c1cccc([N+](=O)[O-])c1 [P-033, 1-[5-methoxy-6-(3-nitro-phenyl)-pyridin-2-ylmethyl]-imidazolidin-2-one] | 5 to 20 | 5 to 20
20 | COc1ccc(Cc2ccc3c(c2)OCO3)nc1-c1cccc([N+](=O)[O-])c1 [P-021, 6-benzo[1,3]dioxol-5-ylmethyl-3-methoxy-2-(3-nitro-phenyl)-pyridine] | < 5 | 5 to 20
21 | COc1ccc(Cc2ccc(NC(C)=O)nc2)c(F)c1-c1cccc(C(C)=O)c1 [P-345] | < 5 | < 5
22 | COc1ccc(Cc2ccc(CNC(N)=O)c(O)c2)c(F)c1-c1cccc(Cl)c1 [P-301] | < 5 | < 5
23 | CN(CC(N)=O)c1ccc(Cc2ccc(OC(F)F)c(-c3cccc(Cl)c3)c2)cn1 [P-621, 2-{[5-(3′-Chloro-6-difluoromethoxy-biphenyl-3-ylmethyl)-pyridin-2-yl]-methyl-amino}-acetamide] | < 5 | < 5
24 | COc1ccc(Cn2ccccc2=O)cc1-c1cccc(C(C)=O)c1 [P-179, 1-(3′-Acetyl-6-methoxy-biphenyl-3-ylmethyl)-1H-pyridin-2-one] | 5 to 20 | 5 to 20
25 | COc1ccc(Cc2ccno2)c(O)c1-c1cccc([N+](=O)[O-])c1 [P-130, 3-isoxazol-5-ylmethyl-6-methoxy-3′-nitro-biphenyl-2-ol] | < 5 | < 5
26 | CCOc1ccc(Cc2ccc(NC(N)=O)nc2)c(F)c1-c1cccc(Cl)c1 [P-279] | < 5 | < 5
27 | COc1ccc(Cc2ccc(CO)nc2)cc1-c1cccc(Cl)c1 [P-567, [5-(3′-Chloro-6-methoxy-biphenyl-3-ylmethyl)-pyridin-2-yl]-methanol] | < 5 | < 5
28 | COc1ccc(Cc2ccc(NS(C)(=O)=O)c(O)c2)c(F)c1-c1cccc(Cl)c1 [P-264] | < 5 | 5 to 20
29 | [2H]C([2H])(c1ccc(NC(N)=O)cc1)c1ccc(OC)c(-c2cccc(Cl)c2)c1F [P-532, {4-[(3′-Chloro-2-fluoro-6-methoxy-biphenyl-3-yl)-bisduetero-methyl]-phenyl}-urea] | < 5 | < 5
30 | COc1ccc(Cc2ccnc(C#N)c2)c(F)c1-c1cccc(Cl)c1 [P-433, 4-(3′-Chloro-2-fluoro-6-methoxy-biphenyl-3-ylmethyl)-pyridine-2-carbonitrile] | < 5 | < 5
31 | COc1ccc(Cc2c(C)noc2C)cc1-c1ccc2c(c1)OCO2 [P-062, 4-(3-Benzo[1,3]dioxol-5-yl-4-methoxy-benzyl)-3,5-dimethyl-isoxazole] | < 5 | < 5
32 | COc1ccc(Cc2ccc(N)cc2)c(F)c1-c1cccc([N+](=O)[O-])c1 [P-136] | < 5 | < 5
33 | O=C1CCCN1Cc1ccc(O)c(-c2cccc([N+](=O)[O-])c2)c1O [P-504, 1-(2,6-Dihydroxy-3′-nitro-biphenyl-3-ylmethyl)-pyrrolidin-2-one] | < 5 | 5 to 20
34 | COc1ccc(Cc2ccnc(CN)c2)c(F)c1-c1cccc(Cl)c1 [P-437, C-[4-(3′-Chloro-2-fluoro-6-methoxy-biphenyl-3-ylmethyl)-pyridin-2-yl]-methylamine] | < 5 | < 5
35 | COc1ccc(CN2CC[C@H](O)C2)cc1-c1cccc([N+](=O)[O-])c1 [P-070, (S)-1-(6-Methoxy-3′-nitro-biphenyl-3-ylmethyl)-pyrrolidin-3-ol] | < 5 | 21 to 40
36 | COc1ccc(Cc2ccc(NC(C)=O)cc2)c(O)c1-c1cccc([N+](=O)[O-])c1 [P-190, N-[4-(2-Hydroxy-6-methoxy-3′-nitro-biphenyl-3-ylmethyl)-phenyl]-acetamide] | < 5 | < 5
